Assay results: patent US8513162B2, “Halogen-containing organosulfur compound and use thereof” (Sumitomo Chemical Company, Limited, priority 2008, dated 2013)

Experiments:
Assay type in all cases: in vivo
Blattalla germanica = experiment: Test Example 5: filter paper with sucrose bait, Blattalla germanica; details: 144 h; 500 ppm active ingredient, 0.7 ml on filter paper; 2 male imagoes of Blattalla germanica; after 6 days; read-out: pest death rate
Method: A formulation of any one of the present compounds (4), (5), (6), (8), (12), (15), (16), (18), (22), (23) and (24) obtained in Formulation Example 5 was diluted with water to prepare a test solution having 500 ppm of the active ingredient.
(§1) A filter paper having a diameter of 5.5 cm was spread on the bottom of a polyethylene cup having a diameter of 5.5 cm and 0.7 ml of the test solution was added dropwise onto the filter paper. As a bait, 30 mg of sucrose was uniformly placed on the filter paper. Into the polyethylene cup, 2 male imagoes of Blattalla germanica were released and the cup was sealed with a lid. After 6 days, the number of surviving or dead Blattalla germanica was counted and the death rate of the pest was calculated.

Culex pipiens pallens = experiment: Test Example 6: Culex pipiens pallens larvae in treated water; details: 24 h, read-out: pest death rate
Method: A formulation of any one of the present compounds (4), (5), (6), (7), (8), (9), (11), (12), (15), (16), (18), (19), (20), (21), (22), and (26) obtained in Formulation Example 5 was diluted with water to prepare a test solution having 500 ppm of the active ingredient.
To 100 mL of ion-exchanged water, 0.7 ml of the test solution was added (active ingredient concentration: 3.5 ppm). Into the solution, 20 last-instar larvae of Culex pipiens pallens were released. After 1 day, the number of surviving or dead Culex pipiens pallens was counted and the death rate of the pest was calculated.

Musca domestica = experiment: Test Example 4: filter paper with sucrose bait, Musca domestica; details: 24 h, read-out: pest death rate
Method: A formulation of any one of the present compounds (1), (4), (6), (7), (9), (10), (11), (12), (13), (15), (16), (17), (18), (19), (20), (21), (22), (24), (25) and (26) obtained in Formulation Example 5 was diluted with water to prepare a test solution having 500 ppm of the active ingredient.
as §1, with “10 female” for “2 male”, “Musca domestica” for “Blattalla germanica”, “24 hours,” for “6 days,”

SMILES	pest or weed control at 500 ppm (Blattalla germanica) [%]	pest or weed control at 3.5 ppm (Culex pipiens pallens) [%]	pest or weed control at 500 ppm (Musca domestica) [%]
C#CCC1CCC(CSCCC(F)(F)F)O1 (single isomer, unassigned) [present compound (23), 2-(prop-2-ynyl)-5-(3,3,3-trifluoropropylthiomethyl)tetrahydrofuran]	100		
N#CC(C1CC[S+]([O-])C1)S(=O)(=O)CCC(F)(F)F (centres unmarked) [present compound (8), 2-(1-oxo-1λ^4-tetrahydrothiophen-3-yl)-2-(3,3,3-trifluoropropylsulfonyl)acetonitrile]	100	≥ 95	
N#CC(CCC(F)(F)F)S(=O)(=O)CC1CCCO1 (centres unmarked) [present compound (17), 5,5,5-trifluoro-2-(tetrahydrofuran-2-ylmethanesulfonyl)pentanenitrile]			≥ 90
N#CC(CCC(F)(F)C(F)(F)F)S(=O)(=O)CCC1OCCO1 (centres unmarked) [present compound (21), 5,5,6,6,6,-pentafluoro-2-[2-(1,3-dioxolan-2-yl)ethanesulfonyl]pentanenitrile]		≥ 95	≥ 90
COC(=O)N1CCC(C(C#N)S(=O)(=O)CCC(F)(F)C(F)(F)F)CC1 (centres unmarked) [present compound (15), 2-[N-(methoxycarbonyl)piperidin-4-yl]-2-(3,3,4,4,4-pentafluorobutylsulfonyl)acetonitrile]	100	≥ 95	≥ 90
N#CC(C1CCSC1)S(=O)(=O)CCC(F)(F)F (centres unmarked) [present compound (7), 2-(tetrahydrothiophen-3-yl)-2-(3,3,3-trifluoropropylsulfonyl)acetonitrile]		≥ 95	≥ 90
C#CCC1CCC(CS(=O)(=O)CCC(F)(F)F)O1 (single isomer, unassigned) [present compound (24), 2-(prop-2-ynyl)-5-(3,3,3-trifluoropropanesulfonylmethyl)tetrahydrofuran]	100		≥ 90
N#CC(CC1CCCO1)S(=O)(=O)CCC(F)(F)F (centres unmarked) [present compound (10), 3-(2-tetrahydrofuran-2-yl)-2-(3,3,3-trifluoropropylsulfonyl)propionitrile]			≥ 90
N#CC(C1CCSCC1)S(=O)(=O)CCC(F)(F)C(F)(F)F (centres unmarked) [present compound (16), 2-(tetrahydrothiopyran-4-yl)-2-(3,3,4,4,4-pentafluorobutylsulfonyl)acetonitrile]	100	≥ 95	≥ 90
N#CC(CCCC(F)(F)C(F)(F)F)S(=O)(=O)CC1CCCO1 (centres unmarked) [present compound (19), 6,6,7,7,7-pentafluoro-2-(tetrahydrofuran-2-ylmethanesulfonyl)heptanenitrile]		≥ 95	≥ 90
N#CC(CCC(F)(F)C(F)(F)F)S(=O)(=O)CC1CCCCO1 (single isomer, unassigned) [present compound (22), 5,5,6,6,6-pentafluoro-2-(tetrahydropyran-2-ylmethanesulfonyl)hexanenitrile]	100	≥ 95	≥ 90
N#CC(CC1CCOC1)S(=O)(=O)CCC(F)(F)F (centres unmarked) [present compound (11), 3-(tetrahydrofuran-3-yl)-2-(3,3,3-trifluoropropylsulfonyl)propionitrile]		≥ 95	≥ 90
N#CC(C1CC[S+]([O-])CC1)S(=O)(=O)CCC(F)(F)F (centres unmarked) [present compound (5), 2-(1-oxo-1λ^4-tetrahydrothiopyran-4-yl)-2-(3,3,3-trifluoropropylsulfonyl)acetonitrile]	100	≥ 95	
CCOC(=O)N1CCC(C(C#N)S(=O)(=O)CCC(F)(F)F)CC1 (centres unmarked) [present compound (1), 2-[N-(ethoxycarbonyl)piperidin-4-yl]-2-(3,3,3-trifluoropropylsulfonyl)acetonitrile]			≥ 90
COC(=O)C(CCC(F)(F)C(F)(F)F)S(=O)(=O)CC1CCCO1 (centres unmarked) [present compound (25), methyl 5,5,6,6,6-pentafluoro-2-(tetrahydrofuran-2-ylmethanesulfonyl)hexanoate]			≥ 90
N#CC(C1CCSCC1)S(=O)(=O)CCC(F)(F)F (centres unmarked) [present compound (4), 2-(tetrahydrothiopyran-4-yl)-2-(3,3,3-trifluoropropylsulfonyl)acetonitrile]	100	≥ 95	≥ 90
N#CC(CC1CCCCO1)S(=O)(=O)CCC(F)(F)F (centres unmarked) [present compound (12), 3-(2-tetrahydropyran-2-yl)-2-(3,3,3-trifluoropropylsulfonyl)propionitrile]	100	≥ 95	≥ 90
N#CC(C1CCS(=O)(=O)CC1)S(=O)(=O)CCC(F)(F)F (centres unmarked) [present compound (6), 2-(1,1-dioxo-1λ^4-tetrahydrothiopyran-4-yl)-2-(3,3,3-trifluoropropylsulfonyl)acetonitrile]	100	≥ 95	≥ 90
N#CC(CCC(F)(F)C(F)(F)F)S(=O)(=O)CC1CCCO1 (centres unmarked) [present compound (18), 5,5,6,6,6-pentafluoro-2-(tetrahydrofuran-2-ylmethanesulfonyl)hexanenitrile]	100	≥ 95	≥ 90
N#CC(CC1CCC(=O)O1)S(=O)(=O)CCC(F)(F)F (centres unmarked) [present compound (13), 3-(2-oxotetrahydrofuran-5-yl)-2-(3,3,3-trifluoropropylsulfonyl)propionitrile]			≥ 90
